≈ marks a conversion by molar mass, not a printed value.
Legend:
[1] = Cytotoxicity against African green monkey Vero cells assessed as reduction in cell viability after 72 hrs by MTT assay; format: cell-based; conditions: chlorocebus sabaeus
[2] = test system: Mycobacterium tuberculosis; assay: Antimycobacterial activity against Mycobacterium tuberculosis H37Rv after 3 days by rapid direct susceptibility test; format: functional; conditions: 72 h
[3] = Selectivity index, ratio of CC50 against African green monkey Vero cells to MIC for Mycobacterium tuberculosis H37Rv; format: toxicity; conditions: read-out: Selectivity Index
[4] = test system: Mycobacterium tuberculosis; assay: Potency index, ratio of moxifloxacin MIC to compound MIC for antimycobacterial activity against Mycobacterium tuberculosis H37Rv; format: functional
[5] = Elimination half life in ICR mouse at 50 mg/kg, po by HPLC analysis; format: ADME, organism-based; conditions: in vivo, read-out: beta t1/2 (converted)
[6] = test system: Mycobacterium tuberculosis; assay: Potency index, ratio of rifampicin MIC to compound MIC for antimycobacterial activity against Mycobacterium tuberculosis H37Rv; format: functional
[7] = Tmax in ICR mouse at 50 mg/kg, po by HPLC analysis; format: ADME, organism-based; conditions: in vivo
[8] = Cmax in ICR mouse at 50 mg/kg, po by HPLC analysis; format: ADME, organism-based; set-up: dose 50 mg/kg, route oral; conditions: in vivo
[9] = Half life in mouse microsomes; format: ADME, Microsome
[10] = AUC (0 to infinity) in ICR mouse at 50 mg/kg, po by HPLC analysis; format: ADME, organism-based; set-up: dose 50 mg/kg, time infinity, route oral; conditions: in vivo

SMILES	CC50 at 72 h [1]	MIC [2]	selectivity ratio [3]	Ratio [4]	half-life [5]	Ratio [6]	Tmax [7]	Cmax [8]	half-life [9]	AUC(0-inf) [10]
COc1c(N2C[C@H]3CCCN(Cc4cn(CCCN5C(=O)/C(=N/O)c6cc(C)ccc65)nn4)[C@H]3C2)c(F)cc2c(=O)c(C(=O)O)cn(C3CC3)c12	8 µg/mL (≈ 11.4 µM)	1.56 µg/mL (≈ 2.23 µM)	5.1	–	–	–	–	–	–	–
COc1c(N2C[C@H]3CCCN(Cc4cn(CCCN5C(=O)C(=O)c6cc(C)ccc65)nn4)[C@H]3C2)c(F)cc2c(=O)c(C(=O)O)cn(C3CC3)c12	32 µg/mL (≈ 46.8 µM)	0.39 µg/mL (≈ 0.57 µM)	82	–	–	–	–	–	–	–
CO/N=C1/C(=O)N(CCCn2cc(CN3CCC[C@@H]4CN(c5c(F)cc6c(=O)c(C(=O)O)cn(C7CC7)c6c5OC)C[C@@H]43)nn2)c2ccccc21	16 µg/mL (≈ 22.9 µM)	0.1 µg/mL (≈ 0.143 µM)	160	–	–	–	–	–	–	–
CCO/N=C1/C(=O)N(CCCn2cc(CN3CCC[C@@H]4CN(c5c(F)cc6c(=O)c(C(=O)O)cn(C7CC7)c6c5OC)C[C@@H]43)nn2)c2ccccc21	16 µg/mL (≈ 22.4 µM)	0.39 µg/mL (≈ 0.547 µM)	41	–	–	–	–	–	–	–
COc1c(N2C[C@H]3CCCN(Cc4cn(CCCN5C(=O)C(=O)c6ccccc65)nn4)[C@H]3C2)c(F)cc2c(=O)c(C(=O)O)cn(C3CC3)c12	16 µg/mL (≈ 23.9 µM)	1.56 µg/mL (≈ 2.33 µM)	10.2	–	–	–	–	–	–	–
CO/N=C1/C(=O)N(CCCn2cc(CN3CCC[C@@H]4CN(c5c(F)cc6c(=O)c(C(=O)O)cn(C7CC7)c6c5OC)C[C@@H]43)nn2)c2ccc(F)cc21	4 µg/mL (≈ 5.58 µM)	0.05 µg/mL (≈ 0.0698 µM)	80	2 - 8	232 min	2 - 8	1.33 h	243 ng/mL	13.7 min	1240 ng·h/mL
CCO/N=C1/C(=O)N(CCCn2cc(CN3CCC[C@@H]4CN(c5c(F)cc6c(=O)c(C(=O)O)cn(C7CC7)c6c5OC)C[C@@H]43)nn2)c2ccc(F)cc21	4 µg/mL (≈ 5.47 µM)	0.2 µg/mL (≈ 0.274 µM)	20	–	–	–	–	–	–	–
COc1c(N2C[C@H]3CCCN(Cc4cn(CCCN5C(=O)C(=O)c6cc(F)ccc65)nn4)[C@H]3C2)c(F)cc2c(=O)c(C(=O)O)cn(C3CC3)c12	16 µg/mL (≈ 23.3 µM)	0.78 µg/mL (≈ 1.13 µM)	20.5	–	–	–	–	–	–	–
COc1c(N2C[C@H]3CCCN(Cc4cn(CCCN5C(=O)/C(=N/O)c6ccccc65)nn4)[C@H]3C2)c(F)cc2c(=O)c(C(=O)O)cn(C3CC3)c12	8 µg/mL (≈ 11.7 µM)	0.78 µg/mL (≈ 1.14 µM)	10.2	–	–	–	–	–	–	–
COc1c(N2C[C@H]3CCCN(Cc4cn(CCCN5C(=O)/C(=N/O)c6cc(F)ccc65)nn4)[C@H]3C2)c(F)cc2c(=O)c(C(=O)O)cn(C3CC3)c12	2 µg/mL (≈ 2.85 µM)	0.78 µg/mL (≈ 1.11 µM)	2.6	–	–	–	–	–	–	–
CO/N=C1/C(=O)N(CCCn2cc(CN3CCC[C@@H]4CN(c5c(F)cc6c(=O)c(C(=O)O)cn(C7CC7)c6c5OC)C[C@@H]43)nn2)c2ccc(C)cc21	8 µg/mL (≈ 11.2 µM)	0.39 µg/mL (≈ 0.547 µM)	20.5	–	–	–	–	–	–	–
CCO/N=C1/C(=O)N(CCCn2cc(CN3CCC[C@@H]4CN(c5c(F)cc6c(=O)c(C(=O)O)cn(C7CC7)c6c5OC)C[C@@H]43)nn2)c2ccc(C)cc21	4 µg/mL (≈ 5.5 µM)	0.39 µg/mL (≈ 0.537 µM)	10.2	–	–	–	–	–	–	–
NNC(=O)c1ccncc1 [ISONIAZID]	128 µg/mL (≈ 933 µM)	0.05 µg/mL (≈ 0.365 µM)	2560	–	–	–	–	–	–	–
COc1c(N2C[C@@H]3CCCN[C@@H]3C2)c(F)cc2c(=O)c(C(=O)O)cn(C3CC3)c12 [MOXIFLOXACIN]	128 µg/mL (≈ 319 µM)	0.1 µg/mL (≈ 0.249 µM)	–	–	–	–	1.08 h	2730 ng/mL	–	7030 ng·h/mL
CO[C@H]1/C=C/O[C@@]2(C)Oc3c(C)c(O)c4c(O)c(c(/C=N/N5CCN(C)CC5)c(O)c4c3C2=O)NC(=O)/C(C)=C\C=C\[C@H](C)[C@H](O)[C@@H](C)[C@@H](O)[C@@H](C)[C@H](OC(C)=O)[C@@H]1C [RIFAMPIN]	512 µg/mL (≈ 622 µM)	0.39 µg/mL (≈ 0.474 µM)	1310	–	–	–	–	–	–	–

Reference: ChEMBL document CHEMBL4138241, “Synthesis and in vitro evaluation of novel substituted isatin-propylene-1H-1,2,3-triazole-4-methylene-moxifloxacin hybrids for their anti-mycobacterial activities” (Eur J Med Chem, 2018)
